Results from patent US11786543B2, “Compositions comprising decitabine and tetrahydrouridine and uses thereof” (The Board of Trustees of the University of Illinois, priority 2008, dated 2023).
Where “and” joins values, the source holds several entries; their conditions need not be identical. Equal values may be shown once.

Experiments:
[1] = system: Reno-1 renal cell cancer xenograft; conditions: mouse, in vivo
Procedure: In an effort to apply the proposed formulation and regimen to treat different cancer histologies, a renal cell cancer cell-line (Reno-1) was developed from a surgical sample of renal cancer and used in a xeno-transplantation experiment. […] The percentage of necrosis in each tissue section was evaluated in a blinded fashion.

[2] = system: normal hematopoietic precursors; assay type: cell-based; conditions: DAC 0.5 μM, equimolar Ara-C, clinically relevant levels of HU; measured D6
Procedure: Measurement was performed on D6.
Normal CD34 cells were isolated from cord blood. […] Equimolar levels of AraC were used as positive controls. […] Twenty-four hours after DAC or AraC exposure, apoptosis was measured by flow-cytometric assessment for annexin staining. Double annexin/7-aminoactinomycin D (7AAD)-positive cells represent late apoptosis/necrosis. […] Results are expressed as a percentage of vehicle treated controls.
(§1) AraC, a cytidine analog that terminates DNA chain synthesis, was used as a positive control for DNA damage and apoptosis induction.

normal CD34+ cells = test: Cell counts, morphology and colony formation; assay type: cell-based; conditions: non-DNA-damaging DNMTI-depleting decitabine; Ara-C equimolar
Source text: The Kasumi-1 cell-line is derived from a patient with AMLI-ETO leukemia and represents a late-stage model of transformation and malignant evolution.

[3] = system: normal CD34+ hematopoietic cells; test: DNA damage (Fast Micromethod for DNA scission, γH2AX flow cytometry); conditions: decitabine 0.5 μM D1,3,5; Ara-C 0.5 μM D1,3,5; hydroxyurea 500 μM D1-5; measured D6
Procedure: Measurement was performed on D6.
Dark histogram=isotype control for flow-cytometricanalysis. Light histograms show the γH2AX staining for untreated control cells. Measurement was performed on D6.
Normal CD34 cells were isolated from cord blood. DAC 0.005 μM was added once daily on days 1-4 and DNMT1 was quantified by Western blot on day 5. […] Twenty-four hours after DAC or AraC exposure, DNA damage was measured by flow-cytometric assessment for phosphorylation of histone H2AX (γH2AX; B) or the Fast Micromethod for DNA scission (FIG. 19C). Equimolar levels of AraC were used as positive controls. Gray histogram is the isotype control. […] Twenty-four hours after DAC or AraC exposure, apoptosis was measured by flow-cytometric assessment for annexin staining. Double annexin/7-aminoactinomycin D (7AAD)-positive cells represent late apoptosis/necrosis. […] Results are expressed as a percentage of vehicle treated controls.
as §1

[4] = Decitabine plasma pharmacokinetics in baboons (LC/MS)
Procedure: Baboons were treated with IV decitabine 0.5 mg/kg (2 animals), SQ decitabine 0.5 mg/kg (2 animals), or oral decitabine 10 mg/kg (2 animals).
Decitabine was administered to two baboons IV (0.5 mg/kg), SQ (0.5 mg/kg) and orally (10 mg/kg). Blood was collected at 7 time-points and plasma concentrations were determined using an LC/MS/MS method adapted from a previously published method 26.
AUClast refers to the area under a plotted plasma concentration-time curve (not shown) at the last recorded timepoint.
Two baboons (PA7484 and PA7470) were administered oral THU 20 mg/kg (400 mg/m^2) 60 minutes prior to oral decitabine 5 mg/kg, or decitabine alone. After a wash-out period of greater than 2 weeks, these same two animals were administered oral THU 2 mg/kg […] 60 minutes prior to oral decitabine 5 mg/kg, or oral decitabine alone. […] Decitabine levels were measured at various timepoints by LC-MS. […]
To compare the effect of different routes of administration on the DAC concentration-time profile, plasma DAC levels were compared after IV or SC administration versus oral administration to the same animals (washout period of ≥2 weeks between drug administrations to the same animal). […] Blood was collected for up to 7 time-points after administration and plasma concentrations were determined using LC/MSMS. […]

baboons = test: Pharmacodynamic responses (HbF %, neutrophil counts) to decitabine with or without THU in baboons; assay type: in vivo, baboon; design: ANC nadir: unit not given here
Procedure: Fetal hemoglobin expression, HbF %, pre and post treatment with the indicated dose of decitabine. […] Oral treatment was with decitabine or a slightly modified decitabine (decitabine-mesylate—Dac-m).
Decitabine was administered at the doses indicated in two consecutive blocks of 5 days each. THU at the indicated doses was administered 60 minutes before each decitabine dose.

[5] = Oral 9.35 mg/kg/d, individual baboons, 9.35 mg/kg/day
[6] = Oral 18.7 mg/kg/d, individual baboons

In the case of “avastin: standard agent used to treat renal cancer”, the “sensitivity of the tumor to standard agents” value [1] is reported as “relatively resistant”.
For `Nc1ccn([C@@H]2O[C@H](CO)[C@@H](O)[C@@H]2O)c(=O)n1` [Ara-C, cytosine arabinoside], the “apoptosis (annexin V-FITC and 7AAD double staining)” value [2] was “cause significant apoptosis and cell-death”, the cell counts (normal CD34+ cells) was “more devastating to normal cells” and the “DNA damage (Fast Micro-method for DNA scission, γH2AX)” value [3] was “cause significant DNA damage”.
In the case of `O=C1NC(O)CCN1[C@@H]1O[C@H](CO)[C@@H](O)[C@H]1O` (some centres unmarked) [THU, Tetrahydrouridine], the “DAC concentrations, THU 400 mg/m^2 versus THU 40 mg/m^2” value ([4]; 60 minutes before DAC 100 mg/m^2, PA7470 and PA7484) is reported as “produced higher DAC concentrations” and the “DAC concentrations, THU 60 minutes before versus simultaneously or 30 minutes before DAC” value ([4]; in vivo) is reported as “produced higher DAC concentrations”.
Work on `CS(=O)(=O)O.Nc1ncn([C@H]2C[C@H](O)[C@@H](CO)O2)c(=O)n1` [Dac-m, decitabine-mesylate] yielded an ANC nadir (baboons; Oral 4.1 mg/kg/d, baboon 7001) of 1417, a Post-HbF % (baboons; Oral 4.1 mg/kg/d, baboon 7001) of 13.1% and an ANC nadir (baboons; Oral 6.7 mg/kg/d, baboon 7002) of 481. For the same molecule, the Post-HbF % (baboons; Oral 6.7 mg/kg/d, baboon 7002) was 31.4%, the ANC nadir (baboons; [5]) was 463 and 2000 and the Post-HbF % (baboons; [5]) was 62.3% and 40.5%. For the same molecule, the ANC nadir (baboons; [6]) was 1659 and the Post-HbF % (baboons; [6]) was 67.8%.
